Kd data for 4 compounds are collected here from paper PMC2925389, “Pre-Steady-State Kinetic Analysis of Truncated and Full-Length Saccharomyces cerevisiae DNA Polymerase Eta” (Journal of Nucleic Acids, 2010).

The target of one test is T1, full-length yPolη (Saccharomyces cerevisiae, UniProt Q04049).
T1 construct: gene RAD30; full-length, residues 1-632, expressed and purified from yeast
T1 sequence (Q04049 1-632): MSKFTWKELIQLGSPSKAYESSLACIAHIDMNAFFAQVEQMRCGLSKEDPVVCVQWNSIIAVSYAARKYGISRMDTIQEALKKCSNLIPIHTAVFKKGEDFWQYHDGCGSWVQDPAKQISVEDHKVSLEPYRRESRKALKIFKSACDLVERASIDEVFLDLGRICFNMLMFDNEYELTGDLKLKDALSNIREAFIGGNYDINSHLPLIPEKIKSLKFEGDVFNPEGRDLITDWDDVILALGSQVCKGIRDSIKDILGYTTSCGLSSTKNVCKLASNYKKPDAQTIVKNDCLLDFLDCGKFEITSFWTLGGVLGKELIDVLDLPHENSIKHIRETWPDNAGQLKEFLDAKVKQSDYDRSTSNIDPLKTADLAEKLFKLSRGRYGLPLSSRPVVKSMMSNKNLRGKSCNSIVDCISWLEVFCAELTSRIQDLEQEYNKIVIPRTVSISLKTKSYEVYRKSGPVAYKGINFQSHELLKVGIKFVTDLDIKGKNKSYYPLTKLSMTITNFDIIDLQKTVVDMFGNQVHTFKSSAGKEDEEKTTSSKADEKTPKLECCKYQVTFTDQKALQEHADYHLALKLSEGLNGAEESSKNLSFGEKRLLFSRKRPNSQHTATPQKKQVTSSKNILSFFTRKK
The test can be described thus: pre-steady-state single-turnover nucleotide incorporation, rapid chemical quench. The format is biochemical. The following applies: 5 mM MgCl2, pH 7.5, 23°C. An excerpt:
pre-steady-state single-turnover nucleotide incorporation, rapid chemical quench on full-length yPolη

The target of the next test is T2, truncated yPolη (Saccharomyces cerevisiae, UniProt Q04049).
T2 construct: gene RAD30; catalytic core (polymerase domain) 1-513, lacks C-terminal residues 514-632; N-terminal tag MGSSH6SSGLVPRGSH
T2 sequence (Q04049 1-513): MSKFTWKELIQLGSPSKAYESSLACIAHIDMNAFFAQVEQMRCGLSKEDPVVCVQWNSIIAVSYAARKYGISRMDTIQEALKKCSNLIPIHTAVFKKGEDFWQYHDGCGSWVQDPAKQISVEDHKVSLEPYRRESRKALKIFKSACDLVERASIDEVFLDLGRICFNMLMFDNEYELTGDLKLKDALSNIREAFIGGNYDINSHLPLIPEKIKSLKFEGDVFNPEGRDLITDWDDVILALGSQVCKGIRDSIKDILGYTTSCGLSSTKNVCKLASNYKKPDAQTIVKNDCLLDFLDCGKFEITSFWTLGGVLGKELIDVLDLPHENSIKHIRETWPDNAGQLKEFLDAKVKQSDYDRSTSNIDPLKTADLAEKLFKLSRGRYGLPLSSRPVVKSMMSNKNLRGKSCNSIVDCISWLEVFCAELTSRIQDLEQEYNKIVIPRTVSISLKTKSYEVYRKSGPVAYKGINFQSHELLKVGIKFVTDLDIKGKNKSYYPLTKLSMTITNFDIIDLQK
Described as above. The following applies: 5 mM MgCl2, pH 7.5, 23°C. The format is biochemical.

Setting [1] is: mismatched dNTP opposite template dA (D-1 21/41-mer DNA).
Where [2] appears, read: correct dNTP opposite template dA (D-1 21/41-mer DNA).

Consider `Nc1ncnc2c1ncn2[C@H]1C[C@H](O)[C@@H](COP(=O)(O)OP(=O)(O)OP(=O)(O)O)O1` [dATP], for which the values for the Kd at full-length yPolη (setting [1]) and on truncated yPolη (correct dNTP opposite template dT (D-7 21/41-mer DNA)) were 156 ± 7 µM and 17 ± 3 µM, respectively.
Consider `Nc1ccn([C@H]2C[C@H](O)[C@@H](COP(=O)(O)OP(=O)(O)OP(=O)(O)O)O2)c(=O)n1` [dCTP], for which the dissociation constant (Kd) (usually the free concentration of one partner at which half of the binding sites on the other are occupied at equilibrium, for simple one-to-one binding) is 70 ± 10 µM on full-length yPolη (setting [1]) and 11.2 ± 0.8 µM at truncated yPolη (correct dNTP opposite template dG (D-6 21/41-mer DNA)).
Regarding `Nc1nc2c(ncn2[C@H]2C[C@H](O)[C@@H](COP(=O)(O)OP(=O)(O)OP(=O)(O)O)O2)c(=O)[nH]1` [dGTP], the Kd on full-length yPolη (setting [1]) worked out at 170 ± 40 µM; at truncated yPolη (correct dNTP opposite template dC (D-8 21/41-mer DNA)), 6.8 ± 0.4 µM.
On to `Cc1cn([C@H]2C[C@H](O)[C@@H](COP(=O)(O)OP(=O)(O)OP(=O)(O)O)O2)c(=O)[nH]c1=O` [dTTP], for which the values for the Kd on full-length yPolη (setting [2]) and at truncated yPolη (setting [2]) were 40 ± 10 µM and 15 ± 2 µM, respectively.
